From patent publication US20120225132A1, “Methods for Increasing the Kinetic Activity of Alcohol, Water and Other Liquids, so as to Render the Liquids More Capable of Enhancing the Alternative Cellular Energy Pathway in the Prevention and Therapy of Diseases” (priority 2011, published 2012) come the findings set out here.

The test deals with ACE pathway. Put plainly: Clinical evaluation of ethanol solutions (with neutral red dye and UV illumination) by the parent of an autistic child. Conditions: standardized protocol. The format is in vivo.

`CCO` [unprocessed ethanol, ethanol]: the “clinical response of the child with autism as judged by the parent” value was “still effective”.
